Assay results reported in patent US5750826A, “Bradykinin B2 receptor modified transgenic non-human animals” (Merck & Co., Inc., priority 1996, dated 1998).
Where no end group is shown, it is not given here.

Experiments:
[1] = target: T1, mouse B2 bradykinin receptor (Mus musculus, UniProt P32299); assay: Competition binding using 100 pM [3H]BK at the expressed mouse B2 bradykinin receptor; details: expressed mouse B2 receptor, 100 pM [3H]BK
T1 construct: The PCR product begins 99 bp upstream of the initiator methionine codon and ends 49 bp downstream of the stop codon; expressed in transfected cells; host or cells: COS-7 (transient), pcDNAI-Neo
T1 sequence (P32299 1-366 isoform P32299-2): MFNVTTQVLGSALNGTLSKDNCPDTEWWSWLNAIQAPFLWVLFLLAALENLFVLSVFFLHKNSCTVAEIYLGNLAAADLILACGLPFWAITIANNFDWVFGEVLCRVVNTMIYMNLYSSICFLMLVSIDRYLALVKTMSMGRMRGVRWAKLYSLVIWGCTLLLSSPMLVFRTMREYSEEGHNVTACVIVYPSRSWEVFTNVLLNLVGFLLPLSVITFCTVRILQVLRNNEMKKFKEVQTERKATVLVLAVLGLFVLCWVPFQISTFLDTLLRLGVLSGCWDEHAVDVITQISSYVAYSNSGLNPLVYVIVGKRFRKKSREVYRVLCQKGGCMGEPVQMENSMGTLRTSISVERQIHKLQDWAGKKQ
Procedure: Binding assays were then performed to determine receptor antagonist or agonist interaction. The assays utilized in the instant invention follow the method of Manning et al., J. Pharmacol. Exp. Ther., 237, 504-512 (1986). [^3 H]BK at various concentrations was incubated for 60 minutes at 25° C. with approximately 50ug membrane protein from COS-7 cells in a volume of 1 ml. The assay was terminated by filtration over Whatman GF/B filters presoaked for 3 hours in 0.1 % polyethyleneimine using a BRANDEL M-24 CELL […] (BRANDEL, Gaithersburg, Md.). The tubes were rinsed two times with 4 ml ice-cold […] and the filter bound radioactivity was quantitated by liquid scintillation counting. Nonspecific binding was determined by performing incubation in the presence of 1 uM BK and generally represents less than 5% of the total binding at 100pM ^3 H]BK. Competition binding experiments, in the presence of 100pM[^3 H]BK, were performed with varying concentrations of the test compound(s). The competition and saturation experiments were analyzed using the EBDA program of McPherson. See McPherson, G.A. J Pharmacol. Methods 14, 213-218 (1985).
To verify the pharmacological properties of the mouse bradykinin B2 receptor the coding sequence of the mouse B2 bradykinin receptor was isolated by PCR (Perkin Elmer/Cetus) using a Techne thermocycler with the template being the EcoR I by Hind III genomic fragment in pSP72 and the 5' primer 5'-[…]-3' (SEQ.ID.NO.:8) and the 3' primer 5'- […]-3' (SEQ.ID.NO.:9). The PCR product was subcloned into the Hind III and Xba I sites of the eukaryotic expression vector pcDNAI-Neo (Invitrogen). The PCR product begins 99 bp upstream of the initiator methionine codon and ends 49 bp downstream of the stop codon. The DNA sequence analysis using Sequenase (US Biochemical) of the subcloned PCR product confirmed that the sequence was identical to that in the original genomic fragment.

[2] = test system: CPAE cells (bovine pulmonary artery endothelial cells); details: cited from earlier work
[3] = test system: mock transfected COS-7 cells; assay: Binding of BK to membranes of mock transfected COS-7 cells; details: membranes from mock transfected COS-7 cells
Procedure: In order to enable expression of the cDNA that encodes for the B2 bradykinin receptor, COS-7 cells were transfected using LIPOFECTIN (BRL, Gaithersburg, Md.) with 50ug/10^7 cells of the B2 receptor cDNA subcloned into the eukaryotic expression vector pcDNA I-Neo (Invitrogen). Cells were then harvested after 72 hours and the membranes containing the expressed receptor protein were prepared by scraping the cells in phosphate buffered saline solution and centrifuging for ten minutes at 500× g. The cell pellet was then resuspended and homogenized with a Polytron in 20 mM N-tris(hydroxymethyl)methyl-2-aminoethane sulfonic acid (TES,pH 6.8 at room temperature) buffer containing 1 mM 1, 10 phenanthroline. The homogenate was then centrifuged for ten minutes at 500 × g. […]
Binding assays were then performed to determine receptor antagonist or agonist interaction. […] The tubes were rinsed two times with 4 ml ice-cold […] and the filter bound radioactivity was quantitated by liquid scintillation counting. […] The competition and saturation experiments were analyzed using the EBDA program of McPherson. […]

rat vas deferens = details: cited from earlier work
Swiss 3T3 fibroblasts = details: cited from earlier work
[4] = target: T2, human B2 bradykinin receptor (Homo sapiens, UniProt P30411); assay: Competition binding against 100 pM [3H]BK at the cloned human B2 receptor (COS-7)
T2 construct: placing the entire B2 clone under the control of the CMV promoter; expressed in transfected cells
T2 sequence (P30411 1-364 isoform P30411-2): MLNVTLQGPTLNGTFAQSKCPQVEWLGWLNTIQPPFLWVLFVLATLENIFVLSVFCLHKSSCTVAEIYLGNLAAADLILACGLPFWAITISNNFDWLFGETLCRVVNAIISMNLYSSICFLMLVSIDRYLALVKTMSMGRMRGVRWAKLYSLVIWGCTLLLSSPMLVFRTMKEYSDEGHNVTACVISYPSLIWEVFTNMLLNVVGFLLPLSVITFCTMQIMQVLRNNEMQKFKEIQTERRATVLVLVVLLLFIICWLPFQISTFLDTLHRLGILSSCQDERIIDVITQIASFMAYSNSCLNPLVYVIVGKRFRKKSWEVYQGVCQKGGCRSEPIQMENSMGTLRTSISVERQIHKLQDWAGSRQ
Procedure: In order to enable expression of the cDNA that encodes for the B2 bradykinin receptor, COS-7 cells were transfected using LIPOFECTIN (BRL, Gaithersburg, Md.) with 50ug/10^7 cells of the B2 receptor cDNA subcloned into the eukaryotic expression vector pcDNA I-Neo (Invitrogen). Cells were then harvested after 72 hours and the membranes containing the expressed receptor protein were prepared by scraping the cells in phosphate buffered saline solution and centrifuging for ten minutes at 500× g. The cell pellet was then resuspended and homogenized with a Polytron in 20 mM N-tris(hydroxymethyl)methyl-2-aminoethane sulfonic acid (TES,pH 6.8 at room temperature) buffer containing 1 mM 1, 10 phenanthroline. The homogenate was then centrifuged for ten minutes at 500 × g. The final membrane pellet was resuspended in assay buffer (TES plus 0.1% protease free bovine serum albumin, 5 uM MK-422 (enalaprilat; Gross et al., 1981) and 140 ug/ml bacitracin using a motor-driven teflon-glass tissue homogenizer. Protein determination was performed by the method of Bradford using bovine IgG as the standard. See Bradford, M.A. Anal. Biochem. 72, 248-254 (1976).
Binding assays were then performed to determine receptor antagonist or agonist interaction. The assays utilized in the instant invention follow the method of Manning et al., J. Pharmacol. Exp. Ther., 237, 504-512 (1986). […] (BRANDEL, Gaithersburg, Md.). The tubes were rinsed two times with 4 ml ice-cold […] and the filter bound radioactivity was quantitated by liquid scintillation counting. […] The competition and saturation experiments were analyzed using the EBDA program of McPherson. See McPherson, G.A. J Pharmacol. Methods 14, 213-218 (1985).

guinea pig ileum mucosa = details: nanomolar concentrations, serosal surface; cited from earlier work

**Q.** What does the source list for RPPGFSPFR [BK]?
**A.** affinity [1]: high (subnanomolar) affinity; activity of phosphatidylcholine-specific PLC [2]: stimulates; BK specific binding sites [3]: did not contain any detectable BK specific binding sites; contraction of smooth muscle / muscle tone (rat vas deferens; musculotropic/postjunctional action): contracted the smooth muscle generating an increased muscle tone; magnitude of the muscular response to electrically driven twitches (rat vas deferens; neurogenic/presynaptic effect): potentiated; phospholipase C mediated InsP formation and PGE-2 synthesis (Swiss 3T3 fibroblasts): stimulated; specificity of binding (rank order) [4]: BK>lys-BK>met-lys-BK; transepithelial potential difference (p.d.) and short circuit current (ISC) (guinea pig ileum mucosa): rapidly increased
